Results as given in patent publication US10239887B2, “Positive allosteric modulators of the muscarinic acetylcholine receptor M4” (Vanderbilt University, priority 2016, dated 2019).
Structures can show the parent of a compound that is named as a salt. Where two headings read alike, the source gives them in different places.

Biological target: T1, human mAChR M4 (Homo sapiens, UniProt P08173)
T1 sequence (P08173 1-479): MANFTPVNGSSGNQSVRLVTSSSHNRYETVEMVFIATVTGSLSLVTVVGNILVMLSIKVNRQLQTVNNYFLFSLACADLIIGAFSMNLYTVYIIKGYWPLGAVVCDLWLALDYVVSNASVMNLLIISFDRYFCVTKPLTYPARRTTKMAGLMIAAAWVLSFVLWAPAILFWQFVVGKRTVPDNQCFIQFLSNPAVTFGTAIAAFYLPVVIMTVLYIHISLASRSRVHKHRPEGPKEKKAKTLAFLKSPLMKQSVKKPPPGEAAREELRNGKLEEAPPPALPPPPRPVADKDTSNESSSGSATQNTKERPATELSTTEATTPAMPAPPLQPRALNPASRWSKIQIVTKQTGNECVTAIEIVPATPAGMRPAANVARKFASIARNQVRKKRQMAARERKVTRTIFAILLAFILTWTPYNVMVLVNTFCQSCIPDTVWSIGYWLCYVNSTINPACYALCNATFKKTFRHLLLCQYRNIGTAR
Test: mAChR M4 cell-based functional assay (calcium flux), human M4
Conditions: for EC50: Human M4 EC50 (nM), calcium flux, PAM activity with EC20 acetylcholine

[1] = Table 10, % ACh maximum at 30 μM

Row | EC50 (Table 10) | Emax [1] | Structure (SMILES) | Emax
1 | 941 nM | 98.4% | Cc1nnc2sc3c(NC4CC4c4ccc(F)c(F)c4)ncnc3c2c1C (stereo not shown) [Compound 119, N-[2-(3,4-difluorophenyl)cyclopropyl]-3,4-dimethyl-pyrimido [4′,5′:4,5]thieno[2,3-c] pyridazin-8-amine] | 
2 | 226 nM | 100% | COCCN1CCN(c2ccc(CNc3ncnc4c3sc3nnc(C)c(C)c34)cc2)CC1 [Compound 120, N-[[4-[4-(2-methoxyethyl)piperazin-1-yl]phenyl]methyl]-3,4-dimethyl-pyrimido [4′,5′:4,5]thieno[2,3-c] pyridazin-8-amine] | 
3 | 579 nM | 100% | COc1cc(F)c(CNc2ncnc3c2sc2nnc(C)c(C)c23)c(F)c1 [Compound 121, N-[(2,6-difluoro-4-methoxy-phenyl)methyl]-3,4-dimethyl-pyrimido [4′,5′:4,5]thieno[2,3-c] pyridazin-8-amine] | 
4 | 482 nM | 83.7% | Cc1nnc2sc3c(NCc4ccc(C(=O)N5CCCC5)cc4)ncnc3c2c1C [Compound 122, [4-[[(3,4-dimethylpyrimido [4′,5′:4,5]thieno[2,3-c]pyridazin-8-yl)amino]methyl]phenyl]-pyrrolidin-1-yl-methanone] | 
5 | 548 nM | 87.2% | Cc1nnc2sc3c(NCc4ccc(C(=O)N5CCOCC5)cc4)ncnc3c2c1C [Compound 123, [4-[[(3,4-dimethylpyrimido [4′,5′:4,5]thieno[2,3-c]pyridazin-8-yl)amino]methyl]phenyl]-morpholino-methanone] | 
6 | 288 nM | 84.8% | Cc1nnc2sc3c(NCc4ccc(C(=O)N5CC6(COC6)C5)cc4)ncnc3c2c1C [Compound 124, [4-[[(3,4-dimethylpyrimido [4′,5′:4,5]thieno[2,3-c]pyridazin-8-yl)amino]methyl]phenyl]-(2-oxa-6-azaspiro[3.3]heptan-6-yl)methanone] | 
7 | 574 nM | 93.1% | Cc1nnc2sc3c(NCc4ccc(C(=O)N5CCCCC5)cc4)ncnc3c2c1C [Compound 125, [4-[[(3,4-dimethylpyrimido [4′,5′:4,5]thieno[2,3-c]pyridazin-8-yl)amino]methyl]phenyl]-(1-piperidyl)methanone] | 
8 | 481 nM | 84.2% | Cc1nnc2sc3c(NCc4ccc(C(=O)N5CC6CC6C5)cc4)ncnc3c2c1C (stereo not shown) [Compound 126, 3-azabicyclo[3.1.0] hexan-3-yl-[4-[[(3,4-dimethylpyrimido [4′,5′:4,5]thieno[2,3-c]pyridazin-8-yl)amino]methyl]phenyl] methanone] | 
9 | 463 nM | 88.4% | COCC1CN(C(=O)c2ccc(CNc3ncnc4c3sc3nnc(C)c(C)c34)cc2)C1 [Compound 127, [4-[[(3,4-dimethylpyrimido [4′,5′:4,5]thieno[2,3-c]pyridazin-8-yl)amino]methyl]phenyl]-[3-(methoxymethyl)azetidin-1-yl] methanone] | 

Continued, compound first:

Row | Structure (SMILES) | EC50 (Table 10) | Emax [1] | Emax
10 | Cc1nnc2sc3c(N4CC(C(N)=O)C4)ncnc3c2c1C [Compound 104, 1-(3,4-dimethylpyrimido [4′,5′:4,5]thieno[2,3-c]pyridazin-8-yl)azetidine-3-carboxamide] | 2100 nM | 52.9% | 
11 | Cc1nnc2sc3c(N4CC5(CNC5)C4)ncnc3c2c1C [Compound 105, 8-(2,6-diazaspiro[3.3]heptan-2-yl)-3,4-dimethyl-pyrimido [4′,5′:4,5]thieno[2,3-c] pyridazine] | 627 nM |  | 55.6%
12 | Cc1nnc2sc3c(NCc4ccc(C(C)(C)O)nc4)ncnc3c2c1C [Compound 106, 2-[5-[[(3,4-dimethylpyrimido [4′,5′:4,5]thieno[2,3-c]pyridazin-8-yl)amino]methyl]-2-pyridyl]propan-2-ol] |  | 54.1% | 
13 | Cc1nnc2sc3c(NCc4ccc(C(C)(C)O)cc4F)ncnc3c2c1C [Compound 107, 2-[4-[[(3,4-dimethylpyrimido [4′,5′:4,5]thieno[2,3-c]pyridazin-8-yl)amino]methyl]-3-fluoro-phenyl]propan-2-ol] | 207 nM | 78.8% | 
14 | Cc1nnc2sc3c(NCc4ccc(CN5CCOCC5)cc4)ncnc3c2c1C [Compound 108, 3,4-dimethyl-N-[[4-(morpholinomethyl)phenyl]methyl]pyrimido[4′,5′:4,5] thieno[2,3-c] pyridazin-8-amine hydrochloride] | 148 nM |  | 76.8%
15 | Cc1nnc2sc3c(NCc4ccc(-c5ccccn5)cc4)ncnc3c2c1C [Compound 109, 3,4-dimethyl-N-[[4-(2-pyridyl)phenyl]methyl] pyrimido[4′,5′:4,5]thieno [2,3-c]pyridazin-8-amine hydrochloride] | 748 nM | 79.2% | 
16 | Cc1nnc2sc3c(NCc4ccc(Oc5ccccn5)cc4)ncnc3c2c1C [Compound 110, 3,4-dimethyl-N-[[4-(2-pyridyloxy)phenyl]methyl] pyrimido[4′,5′:4,5]thieno [2,3-c]pyridazin-8-amine hydrochloride] | 971 nM | 59.3% | 
17 | Cc1nnc2sc3c(NCc4ccc(N5CCN(C)CC5)cc4)ncnc3c2c1C [Compound 111, 3,4-dimethyl-N-[[4-(4-methylpiperazin-1-yl)phenyl]methyl] pyrimido[4′,5′:4,5] thieno[2,3-c] pyridazin-8-amine hydrochloride] | 126 nM | 70.5% | 
18 | Cc1nnc2sc3c(NCc4ccc(C(C)(C)O)c(F)c4)ncnc3c2c1C [Compound 112, 2-[4-[[(3,4-dimethylpyrimido [4′,5′:4,5]thieno[2,3-c]pyridazin-8-yl)amino]methyl]-2-fluoro-phenyl]propan-2-ol] | 255 nM | 74.6% | 
19 | Cc1nnc2sc3c(NCc4ccc(C(C)(O)C(F)(F)F)cc4)ncnc3c2c1C (stereo not shown) [Compound 113, 2-[4-[[(3,4-dimethylpyrimido [4′,5′:4,5]thieno[2,3-c]pyridazin-8-yl)amino]methyl]phenyl]-1,1,1-trifluoro-propan-2-ol] |  | 73.8% | 
20 | Cc1nnc2sc3c(NCc4ccc(C5(O)CCC5)cc4)ncnc3c2c1C [Compound 114, 1-[4-[[(3,4-dimethylpyrimido [4′,5′:4,5]thieno[2,3-c]pyridazin-8-yl)amino]methyl]phenyl]cyclobutanol] | 127 nM | 69.4% | 
21 | CCC(C)(O)c1ccc(CNc2ncnc3c2sc2nnc(C)c(C)c23)c(F)c1 (stereo not shown) [Compound 115, 2-[4-[[(3,4-dimethylpyrimido [4′,5′:4,5]thieno[2,3-c]pyridazin-8-yl)amino]methyl]-3-fluoro-phenyl]butan-2-ol] | 916 nM | 72.3% | 
22 | CCC(C)(O)c1ccc(CNc2ncnc3c2sc2nnc(C)c(C)c23)cc1 (stereo not shown) [Compound 116, 2-[4-[[(3,4-dimethylpyrimido [4′,5′:4,5]thieno[2,3-c]pyridazin-8-yl)amino]methyl]phenyl]butan-2-ol] | 151 nM | 50% | 
23 | Cc1nnc2sc3c(NCc4ccc(CN5CCCC5C(C)(C)O)cc4)ncnc3c2c1C (stereo not shown) [Compound 117, 2-[1-[[4-[[(3,4-dimethylpyrimido [4′,5′:4,5]thieno[2,3-c]pyridazin-8-yl)amino]methyl]phenyl]methyl]pyrrolidin-2-yl]propan-2-ol] | 49.1 nM | 108% | 
24 | Cc1nnc2sc3c(NCc4ccc(N5CCNCC5)cc4)ncnc3c2c1C [Compound 118, 3,4-dimethyl-N-[(4-piperazin-1-ylphenyl)methyl]pyrimido [4′,5′:4,5]thieno[2,3-c] pyridazin-8-amine] | 69 nM | 101% | 
